# In US5480905A, “Benzodioxane derivatives” (Chugai Seiyaku Kabushiki Kaisha, priority 1991, dated 1996):
# Counter-ions that a name gives are not always drawn.
# Experiments:
# serotonin 1A receptor = biological target: T1, serotonin 1A receptor (Rattus norvegicus, UniProt P19327); assay: Serotonin 1A receptor binding experiment (3H-8-OH-DPAT); details: rat cortex and hippocampal tissue; 0.5 nM 3H-8-OH-DPAT; IC50 in M; read-out: -logIC50 5-HT1A (converted)
# T1 construct: the cortex and hippocampal tissue were extracted from the brain; from tissue; host or cells: brain cortex and hippocampus of 7-week-old male S.D. rats, washed membrane homogenate
# T1 sequence (P19327 1-422): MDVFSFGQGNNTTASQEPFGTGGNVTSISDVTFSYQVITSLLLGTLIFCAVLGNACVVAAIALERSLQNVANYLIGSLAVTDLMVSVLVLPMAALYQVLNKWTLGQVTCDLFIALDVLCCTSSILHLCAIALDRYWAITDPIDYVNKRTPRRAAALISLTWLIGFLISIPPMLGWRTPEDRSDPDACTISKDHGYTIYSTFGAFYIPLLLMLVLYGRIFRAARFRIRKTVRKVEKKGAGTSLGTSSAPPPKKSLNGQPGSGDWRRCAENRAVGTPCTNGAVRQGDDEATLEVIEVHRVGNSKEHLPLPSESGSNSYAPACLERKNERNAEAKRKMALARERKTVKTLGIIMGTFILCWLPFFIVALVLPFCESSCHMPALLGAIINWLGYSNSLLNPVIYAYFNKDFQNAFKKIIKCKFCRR
# Procedure: (§1) Affinity for intracerebral serotonin 1A and serotonin 2 receptor was checked in accordance with the method of Hall et al. (J. Neurochem., 44, 1685-1695, 1985) and the method of Leysen et al. (Mol. Pharmacol., 21, 301-314, 1982).
# (§2) Stated more specifically, the cortex and hippocampal tissue were extracted from the brain of 7-wk old S.D. line male rats, mixed with 20 volumes of Tris-HCl buffer (50 mM, pH 7.7) and homogenized with a Teflon homogenizer. Thereafter, the homogenate was centrifuged at 39800×g for 20 min and the supernatant was discarded. Forty volumes of a buffer were added to the precipitate and the mixture was homogenized with a Polytron homogenizer, with the homogenate being centrifuged under the same condition as set forth above. The same procedure was repeated two more times and the final precipitate was homogenized with 40 volumes of a buffer; thereafter, the homogenate was stored at least overnight at -80° C. On the day when binding experiments were to be conducted, the homogenate was thawed at room temperature and incubated at 37° C. for 20 min to remove the endogenous serotonin.
# (§3) Thereafter, centrifugation was conducted at 39800×g for 20 min and 40 volumes of a buffer were added to the precipitate, followed by homogenization. This procedure was repeated three times; to the final precipitate, a buffer was added in 65 volumes for the case of serotonin 1A receptor and in 80 volumes for the case of serotonin 2 receptor and the mixture was homogenized in preparation for the binding experiments that are described below. All procedures of experimentation except storage in a frozen state and thawing at room temperature were conducted at 4° C. or below.
# A reaction solution containing 0.5 nM (final concentration) of 3H-8-hydroxy-2-(di-n-propylamino)tetralin (8-OH-DPAT), […] and 500 μl of brain homogenate in 1.0 ml (final volume) of a buffer was incubated at 25° C. for 30 min. Thereafter, the reaction solution was filtered by rapid passage through a glass filler. The filter was washed rapidly with an ice-cooled buffer (3 ml) three times, put into a scintillation vial together with a scintillation cocktail, and left to stand overnight at 4° C. On the next day, the vial was agitated well and measurements were conducted with a scintillation counter. To determine the amount of specific binding, the amount of binding in the presence of excess unlabeled serotonin (10 μM) was subtracted from the total amount of binding. As an index for the affinity of a test compound for either receptor, the concentration at which the specific binding of ^3 H-DPAT was inhibited by 50% (IC50, M) was determined using computer software EBDA/LIGAND (Biosoft).
# serotonin 2 receptor = biological target: T2, serotonin 2 receptor (Rattus norvegicus, UniProt P14842); assay: Serotonin 2 receptor binding experiment (3H-ketancerine); details: rat cortex and hippocampal tissue; 0.5 nM 3H-ketancerine; IC50 in M; read-out: -logIC50 5-HT2 (converted)
# T2 construct: the cortex and hippocampal tissue were extracted from the brain; from tissue; host or cells: brain cortex and hippocampus of 7-week-old male S.D. rats, washed membrane homogenate
# Procedure: as §1, §2, §3
# A reaction solution containing 0.5 nM (final concentration) of ^3 H-ketancerine and 500 μl of brain homogenate in 1.0 ml (final volume) of a buffer was incubated at 30° C. for 30 min. Subsequent procedures were the same as in the serotonin 1A receptor binding experiment and IC50 (M) was determined accordingly. To determine the amount of specific binding, the amount of binding in the presence of excess unlabelled methysergide ([…]) was subtracted from the total amount of binding.
# T2 sequence (P14842 whole entry): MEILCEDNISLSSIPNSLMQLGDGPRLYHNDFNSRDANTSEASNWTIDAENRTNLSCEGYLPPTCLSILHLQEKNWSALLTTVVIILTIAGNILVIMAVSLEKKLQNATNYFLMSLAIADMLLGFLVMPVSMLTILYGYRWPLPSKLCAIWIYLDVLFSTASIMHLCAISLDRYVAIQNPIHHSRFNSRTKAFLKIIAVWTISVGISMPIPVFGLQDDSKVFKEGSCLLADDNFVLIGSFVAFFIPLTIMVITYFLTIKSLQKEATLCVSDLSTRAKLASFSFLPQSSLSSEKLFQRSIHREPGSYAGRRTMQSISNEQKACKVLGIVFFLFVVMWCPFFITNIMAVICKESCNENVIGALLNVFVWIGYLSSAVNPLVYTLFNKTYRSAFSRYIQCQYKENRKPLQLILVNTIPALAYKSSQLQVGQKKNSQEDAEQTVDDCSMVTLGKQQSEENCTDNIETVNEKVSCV
SMILES,IC50 (serotonin 1A receptor),IC50 (serotonin 2 receptor)
"Cc1cccc2c1OC(CNCCNC(=O)C13CC4CC(CC(C4)C1)C3)CO2 (single isomer, unassigned; (+)) [Compound 8, (+)-N-{[2-(8-methyl-1,4-benzodioxan-2ylmethyl)amino]ethyl}tricyclo[3,3,1,1^3, ^7]decane-1-carboxyamide hydrochloride]",6.31 nM,50.1 nM
"Cc1ccc(C)c2c1OCC(CNCCNC(=O)C13CC4CC(CC(C4)C1)C3)O2 (stereo not drawn) [Compound 11, N-{[2-(5,8-dimethyl-1,4-benzodioxan-2-ylmethyl)amino]ethyl}tricyclo[3,3,1^3, ^7]decane-1-carboxyamide]",3.98 nM,79.4 nM
"CC(C)Cc1ccc2c(c1)OC(CNCCNC(=O)C13CC4CC(CC(C4)C1)C3)CO2 (stereo not drawn) [Compound 13, N-{[2-(7-isobutyl-1,4-benzodioxan-2ylmethyl)amino]ethyl}tricyclo[3,3,1,1^3, ^7]decane-1-carboxyamide]",63.1 nM,316 nM
"CC(=O)c1cccc2c1OC(CNCCNC(=O)C13CC4CC(CC(C4)C1)C3)CO2 (stereo not drawn) [Compound 15, N-{[2-(8-acetyl-1,4benzodioxan-2ylmethyl)amino]ethyl}tricyclo[3,3,1,1^3, ^7]decane-1-carboxyamide]",3.16 nM,63.1 nM
"O=C(NCCNCC1COc2c(O)cccc2O1)C12CC3CC(CC(C3)C1)C2 (stereo not drawn) [Compound 19, N-{[2-(5-hydroxy-1,4-benzodioxan-2ylmethyl)amino]ethyl)tricyclo[3,3,1,1^3, ^7]decane-1-1-carboxyamide]",6.31 nM,1000 nM
"Cc1cccc2c1OC(CN(CCNC(=O)C13CC4CC(CC(C4)C1)C3)Cc1ccccc1)CO2 (stereo not drawn) [Compound a, N-{[2-(8-methyl 1,4-benzodioxan-2-ylmethyl)benzylamino]ethyl}tricyclo[3,3,1,^3, ^7]decane-1-carboxyamide]",158 nM,> 1000 nM

# The next lines start with the values.
IC50 (serotonin 1A receptor),IC50 (serotonin 2 receptor),SMILES
3.98 nM,1000 nM,"C=CCN(CCNC(=O)C12CC3CC(CC(C3)C1)C2)CC1COc2cccc(C)c2O1 (stereo not drawn) [Compound 9, N-{[2-(8-methyl-1,4-benzodioxan-2-ylmethyl)allylamino]ethyl}tricyclo[3,3,1^3, ^7]decane-1-carboxyamide]"
10 nM,631 nM,CCCN(CCNC(=O)C12CC3CC(CC(C3)C1)C2)CC1COc2cccc(C)c2O1 (stereo not drawn) [Compound 10]
> 31.6 nM,200 nM,"Cc1cc(C)c2c(c1)OCC(CNCCNC(=O)C13CC4CC(CC(C4)C1)C3)O2 (stereo not drawn) [Compound 20, N-{[2(6,8-dimethyl-1,4-benzodioxan-2ylmethyl)amino]ethyl)tricyclo[3,3,1,1^3, ^7]decane-1-carboxyamide]"
